Experimental data published in PubChem BioAssay (NCI).
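In this assay, cells in 96-well plates receive the compound at five concentrations for 48 hours. Endpoints are linearly interpolated between the surrounding concentrations. TGI: total growth inhibition.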

Experiments:
Test in all cases: growth of human tumour cells (NCI), 48 h
786-0 renal = system: 786-0 renal
A498 renal = system: A498 renal
A549 NSCLC = system: A549 NSCLC
ACHN renal = system: ACHN renal
BT-549 breast = system: BT-549 breast
CAKI-1 renal = system: CAKI-1 renal
CCRF-CEM leukemia = system: CCRF-CEM leukemia
COLO 205 colon = system: COLO 205 colon
DU-145 prostate = system: DU-145 prostate
EKVX NSCLC = system: EKVX NSCLC
HCC-2998 colon = system: HCC-2998 colon
HCT-116 colon = system: HCT-116 colon
HCT-15 colon = system: HCT-15 colon
HOP-62 NSCLC = system: HOP-62 NSCLC
HOP-92 NSCLC = system: HOP-92 NSCLC
IGROV1 ovarian = system: IGROV1 ovarian
K-562 leukemia = system: K-562 leukemia
KM12 colon = system: KM12 colon
LOX IMVI melanoma = system: LOX IMVI melanoma
M14 melanoma = system: M14 melanoma
MCF7 breast = system: MCF7 breast
MDA-MB-231 breast = system: MDA-MB-231 breast
MDA-MB-435 = system: MDA-MB-435
MDA-N = system: MDA-N
MOLT-4 leukemia = system: MOLT-4 leukemia
NCI-H226 lung = system: NCI-H226 lung
NCI-H23 lung = system: NCI-H23 lung
NCI-H460 lung = system: NCI-H460 lung
NCI/ADR-RES ovarian = system: NCI/ADR-RES ovarian
OVCAR-3 ovarian = system: OVCAR-3 ovarian
OVCAR-4 ovarian = system: OVCAR-4 ovarian
OVCAR-5 ovarian = system: OVCAR-5 ovarian
OVCAR-8 ovarian = system: OVCAR-8 ovarian
PC-3 prostate = system: PC-3 prostate
RPMI-8226 leukemia = system: RPMI-8226 leukemia
RXF 393 renal = system: RXF 393 renal
SF-295 CNS = system: SF-295 CNS
SF-539 CNS = system: SF-539 CNS
SK-MEL-2 melanoma = system: SK-MEL-2 melanoma
SK-MEL-28 melanoma = system: SK-MEL-28 melanoma
SK-MEL-5 melanoma = system: SK-MEL-5 melanoma
SN12C renal = system: SN12C renal
SNB-19 CNS = system: SNB-19 CNS
SNB-75 CNS = system: SNB-75 CNS
SR leukemia = system: SR leukemia
SW-620 colon = system: SW-620 colon
T-47D breast = system: T-47D breast
TK-10 renal = system: TK-10 renal
U251 CNS = system: U251 CNS
UACC-257 melanoma = system: UACC-257 melanoma
UACC-62 melanoma = system: UACC-62 melanoma
UO-31 renal = system: UO-31 renal
HL-60(TB) leukemia = system: HL-60(TB) leukemia
HS 578T breast = system: HS 578T breast
HT29 colon = system: HT29 colon
MALME-3M melanoma = system: MALME-3M melanoma
NCI-H522 lung = system: NCI-H522 lung
SF-268 CNS = system: SF-268 CNS
SK-OV-3 ovarian = system: SK-OV-3 ovarian

CC(=O)O[C@H]1CC[C@H]2[C@@H]3CCC4=CC(=O)C=C[C@]4(O)[C@H]3CC[C@]12C
TGI (786-0 renal): > 100 µM | TGI (A498 renal): > 100 µM | TGI (A549 NSCLC): > 87.9 µM | TGI (ACHN renal): > 100 µM | TGI (BT-549 breast): > 79.8 µM | TGI (CAKI-1 renal): > 100 µM | TGI (CCRF-CEM leukemia): 46.5 µM | TGI (COLO 205 colon): > 55.6 µM | TGI (DU-145 prostate): > 100 µM | TGI (EKVX NSCLC): > 80.7 µM | TGI (HCC-2998 colon): > 100 µM | TGI (HCT-116 colon): > 100 µM | TGI (HCT-15 colon): > 100 µM | TGI (HOP-62 NSCLC): > 100 µM | TGI (HOP-92 NSCLC): 92.3 µM | TGI (IGROV1 ovarian): > 100 µM | TGI (K-562 leukemia): 27.5 µM | TGI (KM12 colon): 52.8 µM | TGI (LOX IMVI melanoma): > 54.4 µM | TGI (M14 melanoma): > 100 µM | TGI (MCF7 breast): > 83.5 µM | TGI (MDA-MB-231 breast): > 100 µM | TGI (MDA-MB-435): 49.5 µM | TGI (MDA-N): > 60.9 µM | TGI (MOLT-4 leukemia): 25.7 µM | TGI (NCI-H226 lung): > 96.7 µM | TGI (NCI-H23 lung): > 62.4 µM | TGI (NCI-H460 lung): > 100 µM | TGI (NCI/ADR-RES ovarian): 46.2 µM | TGI (OVCAR-3 ovarian): > 100 µM | TGI (OVCAR-4 ovarian): > 100 µM | TGI (OVCAR-5 ovarian): > 100 µM | TGI (OVCAR-8 ovarian): > 86 µM | TGI (PC-3 prostate): > 93.1 µM | TGI (RPMI-8226 leukemia): 44.3 µM | TGI (RXF 393 renal): 76 µM | TGI (SF-295 CNS): > 100 µM | TGI (SF-539 CNS): > 100 µM | TGI (SK-MEL-2 melanoma): > 73.4 µM | TGI (SK-MEL-28 melanoma): > 100 µM | TGI (SK-MEL-5 melanoma): 23.4 µM | TGI (SN12C renal): > 100 µM | TGI (SNB-19 CNS): > 100 µM | TGI (SNB-75 CNS): 61.3 µM | TGI (SR leukemia): 5.1 µM | TGI (SW-620 colon): > 57.5 µM | TGI (T-47D breast): > 100 µM | TGI (TK-10 renal): > 100 µM | TGI (U251 CNS): > 100 µM | TGI (UACC-257 melanoma): > 81.9 µM | TGI (UACC-62 melanoma): > 90.2 µM | TGI (UO-31 renal): > 100 µM

CCCCCCCCCCCCCCCCCCNc1ccn(C2OC(CO)C(OP(=O)(O)OCC(O)COP(=O)(O)OCC3OC(n4cc(F)c(NCCCCCCCCCCCCCCCCCC)nc4=O)CC3O)C2O)c(=O)n1 (configuration not stated)
TGI (786-0 renal): > 50 µM | TGI (A498 renal): > 50 µM | TGI (A549 NSCLC): > 50 µM | TGI (ACHN renal): > 50 µM | TGI (BT-549 breast): > 50 µM | TGI (CAKI-1 renal): > 50 µM | TGI (COLO 205 colon): > 50 µM | TGI (DU-145 prostate): > 50 µM | TGI (EKVX NSCLC): > 50 µM | TGI (HCC-2998 colon): > 50 µM | TGI (HCT-116 colon): > 50 µM | TGI (HCT-15 colon): > 50 µM | TGI (HL-60(TB) leukemia): > 50 µM | TGI (HOP-62 NSCLC): > 50 µM | TGI (HOP-92 NSCLC): > 50 µM | TGI (HS 578T breast): > 50 µM | TGI (HT29 colon): > 50 µM | TGI (IGROV1 ovarian): > 50 µM | TGI (K-562 leukemia): > 50 µM | TGI (KM12 colon): > 50 µM | TGI (LOX IMVI melanoma): > 50 µM | TGI (M14 melanoma): > 50 µM | TGI (MALME-3M melanoma): > 50 µM | TGI (MCF7 breast): > 50 µM | TGI (MDA-MB-231 breast): > 50 µM | TGI (MDA-MB-435): > 50 µM | TGI (MDA-N): > 50 µM | TGI (NCI-H226 lung): > 50 µM | TGI (NCI-H23 lung): > 50 µM | TGI (NCI-H460 lung): > 50 µM | TGI (NCI-H522 lung): > 50 µM | TGI (NCI/ADR-RES ovarian): > 50 µM | TGI (OVCAR-3 ovarian): > 50 µM | TGI (OVCAR-4 ovarian): > 50 µM | TGI (OVCAR-5 ovarian): > 50 µM | TGI (OVCAR-8 ovarian): > 50 µM | TGI (PC-3 prostate): > 50 µM | TGI (RPMI-8226 leukemia): > 50 µM | TGI (SF-268 CNS): > 50 µM | TGI (SF-295 CNS): > 50 µM | TGI (SF-539 CNS): > 50 µM | TGI (SK-MEL-2 melanoma): > 50 µM | TGI (SK-MEL-28 melanoma): > 50 µM | TGI (SK-MEL-5 melanoma): > 50 µM | TGI (SK-OV-3 ovarian): > 50 µM | TGI (SN12C renal): > 50 µM | TGI (SNB-19 CNS): > 50 µM | TGI (SNB-75 CNS): > 50 µM | TGI (SW-620 colon): > 50 µM | TGI (T-47D breast): > 50 µM | TGI (TK-10 renal): > 50 µM | TGI (U251 CNS): > 50 µM | TGI (UACC-257 melanoma): > 50 µM | TGI (UACC-62 melanoma): > 50 µM | TGI (UO-31 renal): > 50 µM
